Assay results reported in US11077090B2, “Compounds and compositions and uses thereof” (Sunovion Pharmaceuticals Inc., priority 2016, dated 2021).
Read-outs that look alike come from different tables or passages of the source.

System: compound-treated mice
Assay: Neuropharmacological assay (SmartCube): behavioral activity signature and minimal effective dose
Assay type: in vivo
Details: for minimal effective dose: Mus musculus, ip; for AD: ADHD (probability of activity signature) / AG: analgesic (probability of activity signature) / AX: anxiolytic (probability of activity signature) / CE: cognitive enhancer (probability of activity signature) / DP: anti-depressant (probability of activity signature) / MS: mood stabilizer (probability of activity signature) / PS: anti-psychotic (probability of activity signature) / SD: sedative hypnotic (probability of activity signature) / UN: uncharacterized CNS activity (probability of activity signature): i.p. 15 min before test, most efficacious dose(s)
Text: Neurosci. 2011 Sep. 9; 5:103 (doi: 10.3389/fnins.2011.00103) (“Roberds”). As reported in Roberds, because psychiatric diseases generally result from disorders of cell-cell communication or circuitry, intact systems are useful in detecting improvement in disease-relevant endpoints. These endpoints are typically behavioral in nature, often requiring human observation and interpretation. To facilitate testing of multiple compounds for behavioral effects relevant to psychiatric disease, PsychoGenics, Inc. (Tarrytown, N.Y., “PGI”) developed SmartCube™, an automated system in which behaviors of compound-treated mice are captured by digital video and analyzed with computer algorithms. (D. Brunner et al., Drug Discov. Today 2002, 7:S107-S112). PGI Analytical Systems uses data from SmartCube™ to compare the behavioral signature of a test compound to a database of behavioral signatures obtained using a large set of diverse reference compounds. (The composition of the database as well as validation of the method is further described in Roberds). In this way, the neuropharmacological effects of a test compound can be predicted by similarity to major classes of compounds, such as antipsychotics, anxiolytics and antidepressants.
The SmartCube™ system produces an activity signature indicating the probability that the activity of the test compound at the administered dose matches a given class of neuropharmacological agents. (See, e.g., Roberds, FIGS. 2 and 3). The test compound is simultaneously compared against multiple classes of agents; thus, a separate probability is generated for each behavioral effect measured (e.g., anxiolytic activity, analgesic activity, etc.). In the table below, these probabilities are reported for each behavioral effect measured as follows:
where LOQ is the limit of quantification.
Provided compounds were dissolved in a mixture of Pharmasolve™ (N-methyl-2-pyrrolidone), polyethylene glycol and propylene glycol, and were injected i.p. 15 min. before the behavioral test. For each compound, injections were administered at 3 different doses. For each behavioral effect measured, results for the most efficacious dose(s) are presented. In the table below, DP: anti-depressant; AX: anxiolytic; SD: sedative hypnotic; PS: anti-psychotic; MS: mood stabilizer; AD: ADHD; CE: cognitive enhancer; AG: analgesic; UN: uncharacterized CNS activity.
The potency of many of the compounds in the table was also determined in the SmartCube™ system. Test compounds were routinely examined at dose levels of 0.3, 1, 3, 10 and 30 mg per kg (mpk), although the dose range was increased or decreased if necessary to obtain a full dose response curve. A compound's minimal effective dose (MED) is a measure of the compounds potency. The MED was defined as the dose (in mpk) having 50% or more total activity in SmartCube.

[1] = MED = dose having 50% or more total activity, read-out: Potency: minimal effective dose (MED)
[2] = MED = dose having 50% or more total activity, read-out: Potency: minimal effective dose (MED), binned

SMILES | minimal effective dose [1] [mg/kg] | AD: ADHD (probability of activity signature) | AG: analgesic (probability of activity signature) | AX: anxiolytic (probability of activity signature) | CE: cognitive enhancer (probability of activity signature) | DP: anti-depressant (probability of activity signature) | MS: mood stabilizer (probability of activity signature) | PS: anti-psychotic (probability of activity signature) | SD: sedative hypnotic (probability of activity signature) | UN: uncharacterized CNS activity (probability of activity signature) | minimal effective dose [2] [mg/kg] | Potency: minimal effective dose (MED) (MED = dose having 50% or more total activity)
Cc1cccc2c1COC[C@@H]2N (single isomer, unassigned) [Example 130] | 3 to 10 | + (LOQ ≤ + <5%) | ++ (5% ≤ ++ <25%) | ++ (5% ≤ ++ <25%) | ++ (5% ≤ ++ <25%) | ++ (5% ≤ ++ <25%) | + (LOQ ≤ + <5%) | +++ (25% ≤ +++ <50%) | ++ (5% ≤ ++ <25%) | ++++ (50% ≤ ++++) | – | –
CCN(C)C(=O)Oc1ccc2c(c1)C(N(C)C)COC2.Cl (stereo not drawn) [Example 284] | – | + (LOQ ≤ + <5%) | + (LOQ ≤ + <5%) | ++ (5% ≤ ++ <25%) | + (LOQ ≤ + <5%) | ++ (5% ≤ ++ <25%) | +++ (25% ≤ +++ <50%) | ++ (5% ≤ ++ <25%) | ++ (5% ≤ ++ <25%) | + (LOQ ≤ + <5%) | 10 to 30 | –
Cc1ccc2c(c1)C(N(C)C)CCOC2.Cl (stereo not drawn) [Example 62] | 3 to 10 | + (LOQ ≤ + <5%) | ++ (5% ≤ ++ <25%) | ++ (5% ≤ ++ <25%) | +++ (25% ≤ +++ <50%) | ++ (5% ≤ ++ <25%) | ++ (5% ≤ ++ <25%) | ++ (5% ≤ ++ <25%) | + (LOQ ≤ + <5%) | ++++ (50% ≤ ++++) | – | –
Cc1ccc2c(c1)[C@H](N)[C@@H](C)COC2.Cl (relative stereo) [Example 75, trans-4,7-dimethyl-1,3,4,5-tetrahydrobenzo [c]oxepin-5-amine hydrochloride] | 10 to 30 | + (LOQ ≤ + <5%) | ++ (5% ≤ ++ <25%) | ++ (5% ≤ ++ <25%) | ++ (5% ≤ ++ <25%) | + (LOQ ≤ + <5%) | + (LOQ ≤ + <5%) | ++ (5% ≤ ++ <25%) | + (LOQ ≤ + <5%) | +++ (25% ≤ +++ <50%) | – | –
CCN(C)C(=O)Oc1ccc2c(c1)CO[C@@H](C)[C@H]2N(C)C.Cl [Example 285] | – | ++ (5% ≤ ++ <25%) | + (LOQ ≤ + <5%) | ++ (5% ≤ ++ <25%) | + (LOQ ≤ + <5%) | ++ (5% ≤ ++ <25%) | ++++ (50% ≤ ++++) | ++++ (50% ≤ ++++) | + (LOQ ≤ + <5%) | ++ (5% ≤ ++ <25%) | 3 to 10 | –
CN[C@@H]1COCc2cccc(Cl)c21 [Example 145] | – | + (LOQ ≤ + <5%) | ++ (5% ≤ ++ <25%) | ++ (5% ≤ ++ <25%) | ++ (5% ≤ ++ <25%) | + (LOQ ≤ + <5%) | + (LOQ ≤ + <5%) | + (LOQ ≤ + <5%) | + (LOQ ≤ + <5%) | +++ (25% ≤ +++ <50%) | – | C (>10 to ≤30 mpk)
Cc1ccc2c(c1)[C@H](N)[C@H](C(C)C)OC2 [Example 211] | – | + (LOQ ≤ + <5%) | + (LOQ ≤ + <5%) | ++ (5% ≤ ++ <25%) | + (LOQ ≤ + <5%) | ++ (5% ≤ ++ <25%) | + (LOQ ≤ + <5%) | ++ (5% ≤ ++ <25%) | +++ (25% ≤ +++ <50%) | ++++ (50% ≤ ++++) | 3 to 10 | –
CCN(C)C(=O)Oc1ccc2c(c1)[C@H](N(C)C)[C@H](C)OC2.Cl [Example 287] | – | + (LOQ ≤ + <5%) | + (LOQ ≤ + <5%) | + (LOQ ≤ + <5%) | + (LOQ ≤ + <5%) | + (LOQ ≤ + <5%) | + (LOQ ≤ + <5%) | + (LOQ ≤ + <5%) | ++ (5% ≤ ++ <25%) | + (LOQ ≤ + <5%) | > 30 | –
Cc1ccc(Cl)c2c1[C@H](N)[C@H](C)OC2.Cl [Example 225] | – | + (LOQ ≤ + <5%) | ++ (5% ≤ ++ <25%) | ++ (5% ≤ ++ <25%) | ++ (5% ≤ ++ <25%) | ++ (5% ≤ ++ <25%) | + (LOQ ≤ + <5%) | ++ (5% ≤ ++ <25%) | ++ (5% ≤ ++ <25%) | ++++ (50% ≤ ++++) | 3 to 10 | –
C#CCN[C@@H]1c2ccccc2CO[C@H]1C.Cl [Example 267] | – | + (LOQ ≤ + <5%) | + (LOQ ≤ + <5%) | + (LOQ ≤ + <5%) | + (LOQ ≤ + <5%) | ++ (5% ≤ ++ <25%) | ++ (5% ≤ ++ <25%) | + (LOQ ≤ + <5%) | ++ (5% ≤ ++ <25%) | ++ (5% ≤ ++ <25%) | < 3 | –
CCCN[C@@H]1c2ccccc2CO[C@@H]1C.Cl [Example 269] | – | + (LOQ ≤ + <5%) | + (LOQ ≤ + <5%) | + (LOQ ≤ + <5%) | + (LOQ ≤ + <5%) | ++ (5% ≤ ++ <25%) | ++ (5% ≤ ++ <25%) | + (LOQ ≤ + <5%) | ++ (5% ≤ ++ <25%) | ++ (5% ≤ ++ <25%) | 3 to 10 | –
Cc1ccc2c(c1)CO[C@@H](C)[C@H]2N.Cl [Example 95] | < 3 | + (LOQ ≤ + <5%) | ++ (5% ≤ ++ <25%) | ++ (5% ≤ ++ <25%) | ++ (5% ≤ ++ <25%) | ++ (5% ≤ ++ <25%) | + (LOQ ≤ + <5%) | +++ (25% ≤ +++ <50%) | + (LOQ ≤ + <5%) | +++ (25% ≤ +++ <50%) | – | –
